For 60 molecules, EC50 results are on record in PubChem BioAssay AID1465 (SRMLSC, 2008).

This experiment deals with S. cerevisiae Yfh1-off respiration, WST-1 reduction, 72 h. Briefly: enhancers of respiration in Yfh1-depleted yeast, dose response, Friedreich's ataxia, plus single-dose screen (AID 1465).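 Further: activators that raise dye reduction in frataxin-depleted yeast.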

In general, EC50 refers to the midpoint of the concentration-response curve.

As for `COc1ccccc1C(=O)NNC1=C(C(=O)C(F)(F)F)CCC1`, the concentration for a half-maximal effect (EC50) is 25.3 µM. Then `CCC(=O)NC(c1ccc(OC)c(OC)c1)c1cc(Cl)c2cccnc2c1O` (stereo not given), with 29.2 µM; and `O=c1cc(-c2ccccc2)[nH]n1-c1nc2ccccc2s1`, with 49.1 µM. Then `CCCCC(=O)NC(c1ccccc1OC)c1ccc2cccnc2c1O` (stereo not given), with 36.5 µM; and `CCOC(=O)/C(C#N)=C\C=C1C=CN(C)C=C1`, with 96 µM.

For `Cc1c(N/N=C(\C#N)C(=O)c2ccc(Cl)cc2)c(=O)n(-c2ccccc2)n1C`, the EC50 is 21.5 µM. Turning to `COc1ccc(Cn2c(O)c(/C=N/NC(=O)c3cccnc3)c3ccccc3c2=O)cc1`, the EC50 was 75.4 µM. For `CCN1/C(=C\C=C(C(C)=O)C(C)=O)Sc2ccccc21`, the concentration giving a half-maximal response (EC50) was 87.4 µM. Then `Cc1cc(C(=O)N/N=C/c2ccc(O)c(O)c2O)c(C)n1-c1ccccc1`, with 46 µM; and `CC[n+]1c(C=C2C=C(C)OC(C)=C2)sc2ccccc21`, with 83.8 µM; and `CCC(=O)NC(c1ccc(OC)cc1)c1cc(Cl)c2cccnc2c1O` (stereo not given), with 38.2 µM. With `CCCCC(=O)NC(c1cccs1)c1cc(Cl)c2cccnc2c1O` (stereo not given), the EC50 was 8.49 µM.

With `O=C1NC(=O)C(=Cc2ccc(N3CCOCC3)o2)C(=O)N1`, the EC50 was 96.6 µM. With `c1ccc(-c2ccc(SCc3cccnc3)nn2)nc1`, the EC50 was 42.5 µM. Then `CC1=CC(=Cc2sc3ccccc3[n+]2C)C=C(C)O1`, with 93.7 µM; and `CC1CC(=O)c2c(cc3c(-c4c(O)cc(O)c5c(O)c6c(cc45)OC(C)CC6=O)c(O)cc(O)c3c2O)O1` (stereo not given), with 75 µM; and `CCCC(=O)NC(c1cccs1)c1cc([N+](=O)[O-])c2cccnc2c1O` (stereo not given), with 20.9 µM. With `CN1/C(=C\C=C2C(=O)NC(=O)NC2=O)C(C)(C)c2ccccc21`, the half-maximal effective concentration (EC50) was 96.8 µM. With `O=C1C=C(NCc2ccccc2)c2ccccc2C1=O` the figure was 36.1 µM; with `CC1=CC(=O)c2ccccc2C1=O`, 45.7 µM. Then `O=C(Cn1nc(Cl)nc1Cl)c1cc2ccccc2oc1=O`, with 72.6 µM. Regarding `CCN(CC)c1ccc(/C=N/NC(=O)c2cccc(S(=O)(=O)Nc3ccccc3OC)c2)c(O)c1`, the EC50 was 75.4 µM. `COc1cc(/C=N/NC(=O)c2cncc(Br)c2)cc([N+](=O)[O-])c1O`: the concentration for a half-maximal effect (EC50) was 58.1 µM.

In the case of `CC1=C(C)C(=O)C(N2CCOCC2)=CC1=O`, the EC50 is 14.3 µM. For `CCN1CCS/C1=C\C=C\C1=[N+](CC)CCS1`, the concentration giving a half-maximal response (EC50) was 53.7 µM. In the case of `NC(=S)n1[nH]c(-c2ccc([N+](=O)[O-])cc2)c(N=Nc2cccc([N+](=O)[O-])c2)c1=O`, the 50% effective concentration (EC50) was 44.1 µM. On to `CCC(=O)NC(c1ccc(C)cc1)c1cc([N+](=O)[O-])c2cccnc2c1O` (stereo not given), for which the EC50 was 24.7 µM.

For `O=C(N/N=C/c1c(O)n(Cc2ccccc2)c(=O)c2ccccc12)c1cccnc1`, the EC50 was 71.9 µM. With `COc1cc([N+](=O)[O-])cc(/C=N/NC(=O)c2cc(-c3ccccc3)nc3ccccc23)c1O` the figure was 35.2 µM; with `CCOC(=O)c1c(C)oc2c1c(CN1CCN(CCO)CC1)c(O)c1ccccc12`, 85 µM; with `O=C(NNC1=C(C(=O)C(F)(F)F)CCC1)c1ccc(Br)cc1`, 59.8 µM. With `CCOC(=O)C1=C(Cc2ccc(F)cc2)C(=O)c2ccccc2C1=O` the figure was 36 µM; with `CCC(=O)NC(c1cccs1)c1cc([N+](=O)[O-])c2cccnc2c1O` (stereo not given), 34.4 µM; with `Cn1cccc1/C=C1\SC(=S)N(CC(=O)O)C1=O`, 92.2 µM.

`Cc1ccc(NS(=O)(=O)c2cc([N+](=O)[O-])ccc2NNC(=S)Nc2cccc(Cl)c2)c(C)c1`: the concentration giving a half-maximal response (EC50) is 30.8 µM.

For the molecule `COC(=O)c1ccc(=O)c2nc3/c(=C/O)c(O)cc(=O)c3[nH]c12`, the EC50 was 21.9 µM.

`COc1ccc(C2=NN(c3nc4ccccc4s3)C(=O)C2)cc1`: the concentration for a half-maximal effect (EC50) is 59.4 µM. On to `CC(=O)NC(c1cccs1)c1cc([N+](=O)[O-])c2cccnc2c1O` (stereo not given), for which the EC50 is 25.4 µM.

In the case of `CC(=O)NC(c1ccc(C)cc1)c1cc([N+](=O)[O-])c2cccnc2c1O` (stereo not given), the half-maximal effective concentration (EC50) is 25 µM.

Take `Cc1coc2c1C(=O)C(=O)c1c-2ccc2c(C)cccc12`: the EC50 is 78.8 µM. Then `CCCC(=O)NC(c1ccco1)c1cc([N+](=O)[O-])c2cccnc2c1O` (stereo not given), with 55.2 µM; and `Cc1ccccc1C(=O)/C(C#N)=N/Nc1c(C)n(C)n(-c2ccccc2)c1=O`, with 60 µM. With `O=C(O)c1cccc(NC(=S)N/N=C/c2ccccn2)c1` the figure was 78.1 µM; with `O=C(C1=C(c2ccccc2)C(=O)c2ccccc2C1=O)c1ccccc1`, 35.6 µM; with `CCC(C(=O)O)N1C(=O)/C(=C/c2cccn2C)SC1=S` (stereo not given), 96.7 µM. In the case of `Cc1c(N/N=C(\C#N)C(=O)c2ccccc2)c(=O)n(-c2ccccc2)n1C`, the EC50 was 52 µM. With `CCCCCC(=O)NNC(=S)NC(C)=O` the figure was 34.6 µM; with `Oc1ccc(CN2CCC(Cc3ccccc3)CC2)c2cccnc12`, 96.9 µM; with `COc1ccccc1N1CCN(Cc2ccc(O)c3ncccc23)CC1`, 43 µM. With `CC1=C(C)C(=O)C(CCCCC#CCCCC#CCO)=C(C)C1=O` the figure was 94.8 µM; with `O=C(O)c1cccc2nc3ccccc3nc12`, 47.6 µM; with `O=[N+]([O-])c1ccc(Sc2cccc[n+]2[O-])c2nonc12`, 16.8 µM. Then `O=C1C(Cl)=C(Nc2ccccc2)C(=O)c2ccccc21`, with 67.6 µM; and `CCC(=O)NC(c1cccs1)c1cc(Cl)c2cccnc2c1O` (stereo not given), with 65.9 µM; and `O=[N+]([O-])c1cccc(/C=N/Nc2nc(NCc3ccccc3)nc(N3CCOCC3)n2)c1O`, with 50.9 µM. Take `O=C(CCc1ccccc1)NC(c1cccs1)c1cc(Cl)c2cccnc2c1O` (stereo not given): the EC50 was 7.44 µM. `O=C1c2ccccc2NC(c2ccc(-c3cccc(Cl)c3)o2)N1O` (stereo not given): the concentration giving a half-maximal response (EC50) was 80 µM. Then `O=C(COc1ccc(Cl)cc1Cl)NNC(=S)Nc1ccc(F)cc1`, with 83.3 µM; and `Cc1oc2c(c1C(=O)c1ccccc1)C(=O)C(=O)c1ccccc1-2`, with 35.2 µM. Consider `CCN1CCS/C1=C/C=C/C1=[N+](CC)CCS1`, for which the EC50 was 56.3 µM.
